Common to all, as to format: in vivo
Assay [1] relates to Setaria faberi (SETFA). As to the kind of experiment: Post-emergence biological efficacy, glasshouse pot test. The following applies: 312 h, post-emergence, 1,000 g/ha, evaluated after 13 days (100=total damage; 0=no damage), read-out: Percentage damage caused to weed species, SETFA. As for the experimental part: (§1) Seeds of Alopecurus myosuroides (ALOMY), Setaria faberi (SETFA), Echinochloa crus-galli (ECHCG), Solanum nigrum (SOLNI), Amaranthus retoflexus (AMARE) and Ipomea hederaceae (IPOHE) were sown in standard soil in pots. After cultivation for 8 days under controlled conditions in a glasshouse (at 24/16° C., day/night; 14 hours light; 65% humidity), the plants were sprayed with an aqueous spray solution derived from the formulation of the technical active ingredient in acetone/water (50:50) solution containing 0.5% Tween 20 (polyoxyethelyene sorbitan monolaurate, CAS RN 9005-64-5) to give a final dose of 1000 or 250 g/ha of test compound.
(§2) The test plants were then grown on under controlled conditions in a glasshouse (at 24/16° C., day/night; 14 hours light; 65% humidity) and watered twice daily. After 13 days the test was evaluated (100=total damage to plant; 0=no damage to plant).

Assay [2] has as its system Alopecurus myosuroides (ALOMY). The assay is described as above. To be noted: 312 h, post-emergence, 1,000 g/ha, evaluated after 13 days (100=total damage; 0=no damage), read-out: Percentage damage caused to weed species, ALOMY. As for the experimental part:
as §1, §2

Assay [3] relates to Echinochloa crus-galli (ECHCG). Described as above. The following applies: 312 h, post-emergence, 1,000 g/ha, evaluated after 13 days (100=total damage; 0=no damage), read-out: Percentage damage caused to weed species, ECHCG. As for the experimental part:
as §1, §2

For assay [4], the system named is Ipomea hederaceae (IPOHE). The description is as above. To be noted: Ipomoea hederacea, 312 h; post-emergence, 1,000 g/ha, evaluated after 13 days (100=total damage; 0=no damage); read-out: Percentage damage caused to weed species, IPOHE. As for the experimental part:
as §1, §2

For assay [5], the system named is Solanum nigrum (SOLNI). Described as above. The following applies: 312 h, post-emergence, 1,000 g/ha, evaluated after 13 days (100=total damage; 0=no damage), read-out: Percentage damage caused to weed species, SOLNI. As for the experimental part:
as §1, §2

The test system of assay [6] is Amaranthus retoflexus (AMARE). The description is as above. The following applies: Amaranthus retroflexus, 312 h; post-emergence, 1,000 g/ha, evaluated after 13 days (100=total damage; 0=no damage); read-out: Percentage damage caused to weed species, AMARE. As for the experimental part:
as §1, §2

Assay [7] has as its system Setaria faberi (SETFA). The experiment in a line: Pre-emergence biological efficacy, glasshouse pot test. The following applies: 312 h, pre-emergence, 1,000 g/ha, evaluated after 13 days (100=total damage; 0=no damage), read-out: Percentage damage SETFA. As for the experimental part: as §1, with “one day” for “8 days”
(§3) The test plants were then grown under controlled conditions in the glasshouse (at 24/16° C., day/night; 14 hours light; 65% humidity) and watered twice daily. After 13 days the test was evaluated (100=total damage to plant; 0=no damage to plant).

The test system of assay [8] is Alopecurus myosuroides (ALOMY). The assay is described as above. To be noted: 312 h, pre-emergence, 1,000 g/ha, evaluated after 13 days (100=total damage; 0=no damage), read-out: Percentage damage ALOMY. As for the experimental part:
as §1, with “one day” for “8 days”
as §3

In assay [9] the test system is Echinochloa crus-galli (ECHCG). Described as above. The following applies: 312 h, pre-emergence, 1,000 g/ha, evaluated after 13 days (100=total damage; 0=no damage), read-out: Percentage damage ECHCG. As for the experimental part:
as §1, with “one day” for “8 days”
as §3

Assay [10] relates to Ipomea hederaceae (IPOHE). The description is as above. To be noted: Ipomoea hederacea, 312 h; pre-emergence, 1,000 g/ha, evaluated after 13 days (100=total damage; 0=no damage); read-out: Percentage damage IPOHE. As for the experimental part: as §1, with “one day” for “8 days”
as §3

For assay [11], the system named is Solanum nigrum (SOLNI). Described as above. The following applies: 312 h, pre-emergence, 1,000 g/ha, evaluated after 13 days (100=total damage; 0=no damage), read-out: Percentage damage SOLNI. As for the experimental part:
as §1, with “one day” for “8 days”
as §3

In assay [12] the test system is Amaranthus retoflexus (AMARE). Described as above. To be noted: Amaranthus retroflexus, 312 h; pre-emergence, 1,000 g/ha, evaluated after 13 days (100=total damage; 0=no damage); read-out: Percentage damage AMARE. As for the experimental part: as §1, with “one day” for “8 days”
as §3

For the compound `COC(=O)c1nc(C2CC2)nc(N[C@@H](C)C(=O)OCc2ccccc2)c1Cl` [4-272 (S), 5-Chloro-2-cyclopropyl-6-methoxycarbonyl-4-[(1S)-1-(phenylmethoxy-carbonyl)ethylamino]-pyrimidine], the pest or weed control at 1000 g/ha in the assay on Setaria faberi (SETFA) [1] came out at 60%; in [2] it was 20%; in [3], 30%; in [4] it was 60%; in the assay with Solanum nigrum (SOLNI) [5], 80%; in assay [6], 100%. Besides, the pest or weed control at 1000 g/ha in the assay with Setaria faberi (SETFA) [7] was 20%; in assay [8], 10%; in assay [9] it was 30%; in [10], 70%; in the assay on Solanum nigrum (SOLNI) [11], 80%; in [12], 70%.

Turning to `COC(=O)c1nc(C2CC2)nc(N[C@@H](CO)Cc2ccccc2)c1Cl` [4-273 (R), 5-Chloro-2-cyclopropyl-4-[(1R)-1-hydroxymethyl-2-phenyl-ethylamino]-6-methoxycarbonyl-pyrimidine], the pest or weed control at 1000 g/ha was determined as 60% in the assay with Setaria faberi (SETFA) [1]; 30% in [2]; 60% in [3]; 90% in assay [4]; 90% with Solanum nigrum (SOLNI) [5]; 100% in assay [6]. For the same compound, the pest or weed control at 1000 g/ha with Setaria faberi (SETFA) [7] is 70%; in assay [8], 50%; in assay [9], 60%; in [10], 100%; with Solanum nigrum (SOLNI) [11], 80%; in assay [12], 80%.

`COC(=O)c1nc(C2CC2)nc(N[C@H](CO)Cc2ccccc2)c1Cl` [4-273 (S), 5-Chloro-2-cyclopropyl-4-[(1S)-1-hydroxymethyl-2-phenyl-ethylamino]-6-methoxy-carbonylpyrimidine]: the pest or weed control at 1000 g/ha in the assay on Setaria faberi (SETFA) [1] came out at 70%; in assay [2], 50%; in assay [3] it was 60%; in [4], 90%; in the assay on Solanum nigrum (SOLNI) [5], 100%; in assay [6], 100%. The pest or weed control at 1000 g/ha with Setaria faberi (SETFA) [7] stood at 80%; in [8] it was 40%; in assay [9], 60%; in assay [10], 90%; with Solanum nigrum (SOLNI) [11], 90%; in assay [12], 100%.

With `COC(=O)c1nc(C2CC2)nc(N[C@H](CO)[C@H](O)c2ccc([N+](=O)[O-])cc2)c1Cl` [4-275 (R,R), 5-Chloro-2-cyclopropyl-4-[(1R, 2R)-2-hydroxy-1-hydroxymethyl-2-(4-nitrophenyl)-ethylamino]-6-methoxycarbonyl-pyrimidine], the pest or weed control at 1000 g/ha worked out at 80% in the assay with Setaria faberi (SETFA) [1]; 30% in assay [2]; 70% in [3]; 100% in assay [4]; 100% in the assay on Solanum nigrum (SOLNI) [5]; 100% in assay [6]. In addition, the pest or weed control at 1000 g/ha in the assay on Setaria faberi (SETFA) [7] stood at 70%; in assay [8] it was 70%; in assay [9] it was 60%; in assay [10], 100%; in the assay on Solanum nigrum (SOLNI) [11], 90%; in [12], 100%.

As to `COC(=O)c1nc(C2CC2)nc(N[C@@H](CO)[C@@H](O)c2ccc([N+](=O)[O-])cc2)c1Cl` [4-275 (S,S), 5-Chloro-2-cyclopropyl-4-[(1S, 2S)-2-hydroxy-1-hydroxymethyl-2-(4-nitrophenyl)-ethylamino]-6-methoxycarbonyl-pyrimidine], the pest or weed control at 1000 g/ha came out at 80% in the assay on Setaria faberi (SETFA) [1]; 40% in assay [2]; 60% in [3]; 70% in assay [4]; 100% in the assay with Solanum nigrum (SOLNI) [5]; 100% in [6]. For the same compound, the pest or weed control at 1000 g/ha worked out at 60% with Setaria faberi (SETFA) [7]; 30% in assay [8]; 30% in assay [9]; 100% in assay [10]; 100% in the assay with Solanum nigrum (SOLNI) [11]; 100% in assay [12].

`COC(=O)c1nc(C2CC2)nc(N[C@H](CO)CSCc2ccccc2)c1Cl` [4-276 (R), 5-Chloro-2-cyclopropyl-4-[(1R)-1-hydroxymethyl-2-phenylmethylthio-ethylamino]-6-methoxycarbonyl-pyrimidine]: the pest or weed control at 1000 g/ha with Setaria faberi (SETFA) [1] is 40%; in assay [2], 20%; in [3], 30%; in assay [4], 40%; with Solanum nigrum (SOLNI) [5] it was 80%; in assay [6], 100%. Also, the pest or weed control at 1000 g/ha in the assay with Setaria faberi (SETFA) [7] worked out at 30%; in [8], 20%; in assay [9], 30%; in assay [10], 80%; in the assay with Solanum nigrum (SOLNI) [11], 90%; in assay [12] it was 100%.

Regarding `COC(=O)c1nc(C2CC2)nc(N[C@H](c2ccccc2)[C@@H](O)c2ccccc2)c1Cl` [4-280 (1R,2S), 5-Chloro-2-cyclopropyl-4-[(1R, 2S)-1,2-diphenyl-2-hydroxy-ethyl-amino]-6-methoxy-carbonylpyrimidine], the pest or weed control at 1000 g/ha in the assay with Setaria faberi (SETFA) [1] was 70%; in assay [2], 40%; in assay [3], 50%; in assay [4], 70%; with Solanum nigrum (SOLNI) [5], 80%; in assay [6] it was 100%. In addition, the pest or weed control at 1000 g/ha in the assay on Setaria faberi (SETFA) [7] was 10%; in [8], 10%; in assay [9], 20%; in assay [10] it was 90%; in the assay with Solanum nigrum (SOLNI) [11], 80%; in assay [12], 60%.

Regarding `COC(=O)c1nc(C2CC2)nc(N[C@@H](c2ccccc2)[C@H](O)c2ccccc2)c1Cl` [4-280 (1S,2R), 5-Chloro-2-cyclopropyl-4-[(1S, 2R)-1,2-diphenyl-2-hydroxy-ethylamino]-6-methoxycarbonyl-pyrimidine], the pest or weed control at 1000 g/ha in the assay with Setaria faberi (SETFA) [1] was found to be 80%; in assay [2], 40%; in assay [3], 60%; in [4], 100%; in the assay on Solanum nigrum (SOLNI) [5] it was 100%; in assay [6] it was 100%. Besides, the pest or weed control at 1000 g/ha was found to be 30% in the assay with Setaria faberi (SETFA) [7]; 20% in [8]; 40% in assay [9]; 80% in [10]; 90% with Solanum nigrum (SOLNI) [11]; 100% in assay [12].

(Values after patent US20110086759A1, “CHEMICAL COMPOUNDS” (SYNGENTA CROP PROTECTION, INC., priority 2007, published 2011).)
